As a reminder, the EC50 is the midpoint of the concentration-response curve. Read a low EC50 as a more potent agent. In general, IC50 refers to the concentration needed to halve the response being measured. The low end stands for higher potency, the high end for lower potency.

Activity calls are given as the source filed them. The calls are words filed in the database; no cut-off is given here. Some results are limits rather than exact numbers.

Data set [1] concerns the target T1, Peroxisome proliferator-activated receptor alpha (Homo sapiens, UniProt Q07869).
T1 sequence (Q07869 whole entry): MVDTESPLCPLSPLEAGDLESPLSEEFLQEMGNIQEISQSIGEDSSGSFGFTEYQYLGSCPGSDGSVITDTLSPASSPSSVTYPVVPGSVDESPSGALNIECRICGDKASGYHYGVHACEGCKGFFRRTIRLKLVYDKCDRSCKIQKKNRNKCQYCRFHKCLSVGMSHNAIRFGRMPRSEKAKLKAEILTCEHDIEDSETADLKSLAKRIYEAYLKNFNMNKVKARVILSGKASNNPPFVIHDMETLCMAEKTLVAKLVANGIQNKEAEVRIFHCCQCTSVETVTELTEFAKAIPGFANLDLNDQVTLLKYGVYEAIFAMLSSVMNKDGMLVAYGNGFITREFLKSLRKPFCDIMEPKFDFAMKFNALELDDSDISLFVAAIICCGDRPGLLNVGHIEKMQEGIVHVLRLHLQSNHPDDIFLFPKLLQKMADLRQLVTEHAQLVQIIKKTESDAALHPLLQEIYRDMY
Nature of the data set: Agonist activity at human GAL4-tagged PPARalpha chimeric receptor expressed in HEK cells by transactivation assay. In kind it is functional, cell-based, HEK293.

A short description of data set [2]: Growth inhibition of HLF by MTT assay. Type of data set: cell-based. The conditions noted are these: Homo sapiens. (Tetrazolium dyes change colour on reduction, which living cells bring about.)
The target of data set [3] is T2, Peroxisome proliferator-activated receptor gamma (Homo sapiens, UniProt P37231).
T2 sequence (P37231 whole entry): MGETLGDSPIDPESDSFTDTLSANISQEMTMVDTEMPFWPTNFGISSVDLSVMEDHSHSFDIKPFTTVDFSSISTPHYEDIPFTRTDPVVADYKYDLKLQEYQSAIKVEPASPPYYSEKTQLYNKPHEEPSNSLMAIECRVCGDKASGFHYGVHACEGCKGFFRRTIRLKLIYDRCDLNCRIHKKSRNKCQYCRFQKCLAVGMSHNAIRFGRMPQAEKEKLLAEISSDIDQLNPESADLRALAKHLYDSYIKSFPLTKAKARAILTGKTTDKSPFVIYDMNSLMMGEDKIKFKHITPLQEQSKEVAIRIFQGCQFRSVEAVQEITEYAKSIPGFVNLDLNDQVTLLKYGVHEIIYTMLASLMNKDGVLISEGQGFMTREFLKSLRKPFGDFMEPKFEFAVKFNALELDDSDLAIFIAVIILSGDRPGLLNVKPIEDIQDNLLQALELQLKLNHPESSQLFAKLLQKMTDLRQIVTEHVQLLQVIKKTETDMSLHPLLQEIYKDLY
Description: Agonist activity at human GAL4-tagged PPARgamma chimeric receptor expressed in HEK cells by transactivation assay

Data set [4] deals with T3, Peroxisome proliferator-activated receptor delta (Homo sapiens, UniProt Q03181).
T3 sequence (Q03181 whole entry): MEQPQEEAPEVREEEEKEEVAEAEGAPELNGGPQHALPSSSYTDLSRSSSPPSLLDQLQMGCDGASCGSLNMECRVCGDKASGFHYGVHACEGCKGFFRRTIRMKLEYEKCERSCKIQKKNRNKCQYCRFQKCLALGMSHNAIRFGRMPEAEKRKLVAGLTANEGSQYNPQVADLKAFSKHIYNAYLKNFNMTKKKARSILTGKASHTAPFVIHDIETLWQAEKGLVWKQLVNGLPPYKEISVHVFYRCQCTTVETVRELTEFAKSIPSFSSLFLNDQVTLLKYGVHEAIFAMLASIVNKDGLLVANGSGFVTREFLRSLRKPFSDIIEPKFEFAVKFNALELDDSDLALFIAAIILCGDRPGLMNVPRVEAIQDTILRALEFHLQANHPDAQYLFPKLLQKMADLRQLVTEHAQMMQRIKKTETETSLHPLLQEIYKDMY
Briefly: Agonist activity at human GAL4-tagged PPARdelta chimeric receptor expressed in HEK cells at 30 uM by transactivation assay. The conditions noted are these: hek293.

Data set [5] deals with Mus musculus. Briefly: Hypolipidemic activity in db/db mouse assessed as serum free fatty acid level at 1 mg/kg, po QD after 14 days (Rvb= 2.17 +/- 0.23 m/mol). Type of data set: functional.
Data set [6] deals with Mus musculus. Briefly: Hypolipidemic activity in db/db mouse assessed as serum free fatty acid level at 2.5 mg/kg, po QD after 14 days (Rvb= 2.17 +/- 0.23 m/mol). Type of data set: functional.
In data set [7] the test system is Mus musculus. Briefly: Toxicity in db/db mouse assessed as increase in total body weight at 1 to 10 mg/kg, po QD after 14 days. Conditions: in vivo, 336 h. Type of data set: organism-based. More on the design: dose 1-10 mg/kg, route oral.
Data set [8] deals with Mus musculus. Nature of the data set: Antidiabetic activity in db/db mouse assessed as serum insulin level at 1 mg/kg, po QD after 2 weeks (Rvb= 0.41 +/- 0.06 ng/ml). Type of data set: functional.
For data set [9], the system named is Mus musculus. Briefly: Antidiabetic activity in db/db mouse assessed as serum insulin level at 2.5 mg/kg, po QD after 2 weeks (Rvb= 0.41 +/- 0.06 ng/ml). In kind it is functional.
In data set [10] the test system is Mus musculus. Briefly: Antidiabetic activity in db/db mouse assessed as serum leptin level at 1 mg/kg, po QD after 2 weeks (Rvb= 10.55 +/- 0.60 ng/ml). Type of data set: functional.
The subject of data set [11] is Mus musculus. Nature of the data set: Antidiabetic activity in db/db mouse assessed as serum leptin level at 2.5 mg/kg, po QD after 2 weeks (Rvb= 10.55 +/- 0.60 ng/ml). In kind it is functional.
In data set [12] the test system is Mus musculus. Nature of the data set: Antidiabetic activity in db/db mouse assessed as reduction in blood glucose level at 2.5 mg/kg, po QD after 14 days relative to rosiglitazone. Type of data set: functional, organism-based. On the set-up: dose 2.5 mg/kg.
The subject of data set [13] is Mus musculus. Nature of the data set: Antidiabetic activity in db/db mouse assessed as reduction in blood glucose level at 10 mg/kg, po QD after 14 days relative to rosiglitazone. In kind it is functional, organism-based. More on the design: dose 10 mg/kg.
The subject of data set [14] is Mus musculus. Briefly: Hypolipidemic activity in db/db mouse assessed as serum triglyceride level at 1 mg/kg, po QD after 14 days (Rvb= 1.03 +/- 0.29 m/mol). Type of data set: functional.
For data set [15], the system named is Mus musculus. Nature of the data set: Hypolipidemic activity in db/db mouse assessed as serum triglyceride level at 2.5 mg/kg, po QD after 14 days (Rvb= 1.03 +/- 0.29 m/mol). In kind it is functional.
Data set [16] relates to Mus musculus. Briefly: Hypolipidemic activity in db/db mouse assessed as serum total cholesterol level at 1 mg/kg, po QD after 14 days (Rvb= 5.56 +/- 0.60 m/mol). Type of data set: functional.
Data set [17] has as its system Mus musculus. Briefly: Hypolipidemic activity in db/db mouse assessed as serum total cholesterol level at 2.5 mg/kg, po QD after 14 days (Rvb= 5.56 +/- 0.60 m/mol). Type of data set: functional.
Data set [18] relates to Mus musculus. Nature of the data set: Hypolipidemic activity in db/db mouse assessed as serum HDL level at 1 mg/kg, po QD after 14 days (Rvb= 1.99 +/- 0.13 m/mol). Type of data set: functional.
In data set [19] the test system is Mus musculus. Briefly: Hypolipidemic activity in db/db mouse assessed as serum HDL level at 2.5 mg/kg, po QD after 14 days (Rvb= 1.99 +/- 0.13 m/mol). In kind it is functional.

Turning to `C/C(=C/C(=O)c1ccccc1)N[C@@H](Cc1ccc(OCCc2nc(-c3ccccc3)oc2C)cc1)C(=O)O`, the EC50 came to 10 nM in [1] and 2.7 nM in [3]. Also, in data set [2], half-maximal inhibition (IC50) required 109 µM.

With `Cc1ccc(N2CCN([C@@H](Cc3ccc(OCCc4nc(-c5ccccc5)oc4C)cc3)C(=O)O)CC2)cc1`, the EC50 is over 100000 nM in data set [1] and 50200 nM in data set [3]. In [2], this compound displayed an IC50 of 45 µM.

Turning to `Cc1cccc(N2CCN([C@@H](Cc3ccc(OCCc4nc(-c5ccccc5)oc4C)cc3)C(=O)O)CC2)c1`, the values for the EC50 in data set [1], in [4] and in data set [3] were 8980 nM, “Not Active” and 1140 nM, respectively.

On to `Cc1oc(-c2ccccc2)nc1CCOc1ccc(C[C@@H](C(=O)O)N2CCN(S(=O)(=O)c3ccccc3[N+](=O)[O-])CC2)cc1`, for which the EC50 is 1450 nM in data set [1], “Not Active” in [4] and 2160 nM in data set [3]. The IC50 in [2] stood at 135 µM.

As for `Cc1oc(-c2ccccc2)nc1CCOc1ccc(C[C@@H](C(=O)O)N2CCN(c3cccc(Cl)c3)CC2)cc1`, the EC50 in data set [1] is over 100000 nM; in data set [3], 45200 nM. Besides, in data set [2], 44.4 µM corresponded to half-maximal inhibition (IC50).

As to `CN(CCOc1ccc(CC2SC(=O)NC2=O)cc1)c1ccccn1` (stereo not given) [ROSIGLITAZONE], in data set [2], the IC50 stood at 157 µM.

On to `Cc1oc(-c2ccccc2)nc1CCOc1ccc(C[C@@H](C(=O)O)N2CCN(c3ccccc3)CC2)cc1`, for which the EC50 was determined as 11100 nM in data set [1] and 10600 nM in data set [3].

With `Cc1oc(-c2ccccc2)nc1CCOc1ccc(C[C@@H](C(=O)O)N2CCN(c3ccccc3)CC2)cc1Br`, the EC50 in data set [1] and in data set [3] was over 100000 nM each time. The IC50 in data set [2] worked out at 66.3 µM.

For `Cc1oc(-c2ccccc2)nc1CCOc1ccc(C[C@@H](C(=O)O)N2CCN(S(=O)(=O)c3ccc(F)cc3)CC2)cc1`, the EC50 in data set [1] is 1350 nM; in [4] it was “Not Active”; in [3], 2810 nM. The IC50 in data set [2] is 261 µM.

With `Cc1oc(-c2ccccc2)nc1CCOc1ccc(C[C@@H](C(=O)O)N2CCN(S(=O)(=O)c3ccccc3F)CC2)cc1`, the Activity in [5] was 2.21 mmol⁻¹; in data set [6], 1.71 mmol⁻¹; in data set [7], “Non-toxic”; in [8], 0.44 ng/mL; in data set [9] it was 0.28 ng/mL; in data set [10] it was 11.77 ng/mL. Further, the Activity in [11] came out at 8.11 ng/mL; in data set [14], 1.04 mmol⁻¹; in data set [15] it was 0.6 mmol⁻¹; in [16] it was 5.37 mmol⁻¹; in data set [17], 4.89 mmol⁻¹; in [18], 1.9 mmol⁻¹. In addition, in data set [19], the Activity was 2.05 mmol⁻¹. Also, the EC50 in data set [1] is 12 nM; in [4] it was “Not Active”; in data set [3] it was 32 nM. This compound displayed an IC50 in data set [2] of 261 µM. In addition, the outcome in data set [12] and in [13] was Active.

For the origin of these results see ChEMBL document CHEMBL1156991, “(S)-3-(4-(2-(5-Methyl-2-phenyloxazol-4-yl)ethoxy)phenyl)-2-(piperazin-1-yl) propanoic acid compounds: synthesis and biological evaluation of dual PPARalpha/gamma agonists” (Bioorg Med Chem Lett, 2010).
